From PMC8670630 (Bioorganic & medicinal chemistry letters, 2021)

What was measured:
[1] = molecular target: human sulfide:quinone oxidoreductase (SQOR) (Homo sapiens, UniProt Q9Y6N5); assay: SQOR inhibition; type: biochemical
[2] = Mouse plasma protein binding; type: in vitro ADME
Caco-2 = Caco-2 permeability; type: in vitro ADME
[3] = system: murine model of heart failure; conditions: ref [21],[22]; cited from earlier work
mammalian cells = conditions: in vitro tests; ref [21],[22]; cited from earlier work
CoQ-binding site in SQOR = conditions: in vitro tests; ref [21],[22]; cited from earlier work

Sequence of human sulfide:quinone oxidoreductase (SQOR) (Q9Y6N5 whole entry): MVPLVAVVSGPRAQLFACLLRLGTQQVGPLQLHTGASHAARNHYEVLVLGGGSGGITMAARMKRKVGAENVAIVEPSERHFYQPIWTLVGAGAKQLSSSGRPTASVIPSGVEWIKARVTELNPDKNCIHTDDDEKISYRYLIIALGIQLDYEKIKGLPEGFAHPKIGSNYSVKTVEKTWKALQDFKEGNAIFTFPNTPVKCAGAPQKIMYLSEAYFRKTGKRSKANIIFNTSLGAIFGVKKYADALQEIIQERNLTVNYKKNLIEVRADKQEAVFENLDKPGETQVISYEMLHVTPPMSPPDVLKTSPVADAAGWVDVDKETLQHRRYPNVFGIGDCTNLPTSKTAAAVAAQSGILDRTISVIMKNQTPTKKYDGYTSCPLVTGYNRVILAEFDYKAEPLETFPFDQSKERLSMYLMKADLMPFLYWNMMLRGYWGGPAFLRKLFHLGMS

COc1nc(-c2ccccc2)cc(-c2ccc(Cl)cc2Cl)c1C#N [Compound 7]
activity in IC50 assay (in words) [1]: inactivity

COc1nc(-c2ncccc2C)cc(-c2ccc(F)cc2)c1C#N [Compound 15]
Mouse Plasma Protein Binding (% bound) [2]: 99.64 % bound | Caco-2 permeability A→B (Caco-2; A→B): 0.455 1 × 10^−6 cm/s | Caco-2 permeability B→A (Caco-2; B→A): 0.769 1 × 10^−6 cm/s

COc1nc(-c2ncccc2C)cc(-c2ccc(N)cc2)c1C#N [Compound 19]
Mouse Plasma Protein Binding (% bound) [2]: 97.8 % bound | effect on cardiac function and progression to heart failure [3]: preserves cardiac function and prevents the progression to heart failure | toxicity in mammalian cells (mammalian cells): little or no toxicity | specificity for the CoQ-binding site in SQOR (CoQ-binding site in SQOR): high degree of specificity

CCOc1nc(-c2ccccc2)nc(-c2ccccc2)c1C#N [Compound 24]
fold less active than the equivalent pyridine 21 ([1]; SQOR inhibition, 24 versus 21): 2 fold
